Assay results as given in PubChem BioAssay (NCI).
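All cell lines were grown in 96-well plates and treated with compound for 48 hours. GI50 is the concentration that inhibits growth by half. TGI is the concentration that stops growth completely.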

Experiments:
Experiment in all cases: growth of human tumour cells (NCI), 48 h; in the data active = GI50 below about 0.43 µM; inactive = the rest
K-562 leukemia = test system: K-562 leukemia
NCI/ADR-RES ovarian = test system: NCI/ADR-RES ovarian
SN12C renal = test system: SN12C renal
SNB-75 CNS = test system: SNB-75 CNS
HOP-92 NSCLC = test system: HOP-92 NSCLC
SK-MEL-28 melanoma = test system: SK-MEL-28 melanoma
IGROV1 ovarian = test system: IGROV1 ovarian
OVCAR-3 ovarian = test system: OVCAR-3 ovarian
A549 NSCLC = test system: A549 NSCLC
MOLT-4 leukemia = test system: MOLT-4 leukemia
HL-60(TB) leukemia = test system: HL-60(TB) leukemia
NCI-H460 lung = test system: NCI-H460 lung
ACHN renal = test system: ACHN renal
KM12 colon = test system: KM12 colon
MDA-MB-231 breast = test system: MDA-MB-231 breast
OVCAR-8 ovarian = test system: OVCAR-8 ovarian
PC-3 prostate = test system: PC-3 prostate
786-0 renal = test system: 786-0 renal
HCC-2998 colon = test system: HCC-2998 colon
HCT-15 colon = test system: HCT-15 colon
A498 renal = test system: A498 renal
LOX IMVI melanoma = test system: LOX IMVI melanoma
SR leukemia = test system: SR leukemia
SK-MEL-5 melanoma = test system: SK-MEL-5 melanoma
T-47D breast = test system: T-47D breast
SK-MEL-2 melanoma = test system: SK-MEL-2 melanoma
BT-549 breast = test system: BT-549 breast
CAKI-1 renal = test system: CAKI-1 renal
HCT-116 colon = test system: HCT-116 colon
SF-268 CNS = test system: SF-268 CNS
HT29 colon = test system: HT29 colon
HS 578T breast = test system: HS 578T breast
MCF7 breast = test system: MCF7 breast
MDA-MB-435 = test system: MDA-MB-435
SW-620 colon = test system: SW-620 colon
NCI-H226 lung = test system: NCI-H226 lung
RPMI-8226 leukemia = test system: RPMI-8226 leukemia
COLO 205 colon = test system: COLO 205 colon
NCI-H23 lung = test system: NCI-H23 lung
SF-295 CNS = test system: SF-295 CNS
HOP-62 NSCLC = test system: HOP-62 NSCLC
UACC-257 melanoma = test system: UACC-257 melanoma
OVCAR-4 ovarian = test system: OVCAR-4 ovarian
RXF 393 renal = test system: RXF 393 renal
MALME-3M melanoma = test system: MALME-3M melanoma
U251 CNS = test system: U251 CNS
OVCAR-5 ovarian = test system: OVCAR-5 ovarian
SF-539 CNS = test system: SF-539 CNS
UACC-62 melanoma = test system: UACC-62 melanoma
EKVX NSCLC = test system: EKVX NSCLC
SNB-19 CNS = test system: SNB-19 CNS
M14 melanoma = test system: M14 melanoma
UO-31 renal = test system: UO-31 renal
SK-OV-3 ovarian = test system: SK-OV-3 ovarian
NCI-H522 lung = test system: NCI-H522 lung
DU-145 prostate = test system: DU-145 prostate
TK-10 renal = test system: TK-10 renal
CCRF-CEM leukemia = test system: CCRF-CEM leukemia

COc1cc(/C=N/Nc2ncnc3[nH]ncc23)ccc1O
> 25 µM: TGI (K-562 leukemia) | TGI (NCI/ADR-RES ovarian) | TGI (SN12C renal) | TGI (SK-MEL-28 melanoma) | TGI (IGROV1 ovarian) | TGI (OVCAR-3 ovarian) | TGI (A549 NSCLC) | TGI (MOLT-4 leukemia) | TGI (HL-60(TB) leukemia) | TGI (NCI-H460 lung) | TGI (ACHN renal) | TGI (KM12 colon) | TGI (MDA-MB-231 breast) | TGI (OVCAR-8 ovarian) | TGI (PC-3 prostate) | TGI (786-0 renal) | TGI (HCC-2998 colon) | TGI (HCT-15 colon) | TGI (A498 renal) | TGI (LOX IMVI melanoma) | TGI (SR leukemia) | TGI (SK-MEL-5 melanoma) | TGI (T-47D breast) | TGI (BT-549 breast) | TGI (CAKI-1 renal) | TGI (HCT-116 colon) | TGI (SF-268 CNS) | TGI (HT29 colon) | TGI (MCF7 breast) | TGI (MDA-MB-435) | TGI (SW-620 colon) | TGI (NCI-H226 lung) | TGI (RPMI-8226 leukemia) | TGI (COLO 205 colon) | TGI (NCI-H23 lung) | TGI (SF-295 CNS) | TGI (HOP-62 NSCLC) | TGI (UACC-257 melanoma) | TGI (OVCAR-4 ovarian) | TGI (MALME-3M melanoma) | TGI (U251 CNS) | TGI (OVCAR-5 ovarian) | TGI (UACC-62 melanoma) | TGI (EKVX NSCLC) | TGI (SNB-19 CNS) | TGI (M14 melanoma) | TGI (UO-31 renal) | TGI (SK-OV-3 ovarian) | TGI (NCI-H522 lung) | TGI (DU-145 prostate) | TGI (CCRF-CEM leukemia)
inactive: GI50 (K-562 leukemia) 9.94 µM | GI50 (NCI/ADR-RES ovarian) > 25 µM | GI50 (SN12C renal) 13.6 µM | GI50 (SNB-75 CNS) 4.83 µM | GI50 (HOP-92 NSCLC) 6.77 µM | GI50 (SK-MEL-28 melanoma) > 20.1 µM | GI50 (IGROV1 ovarian) 8.97 µM | GI50 (OVCAR-3 ovarian) > 22.7 µM | GI50 (A549 NSCLC) > 25 µM | GI50 (MOLT-4 leukemia) 12.4 µM | GI50 (HL-60(TB) leukemia) > 23.6 µM | GI50 (NCI-H460 lung) 24.7 µM | GI50 (ACHN renal) 8.01 µM | GI50 (KM12 colon) 12.6 µM | GI50 (MDA-MB-231 breast) > 20.1 µM | GI50 (OVCAR-8 ovarian) > 25 µM | GI50 (PC-3 prostate) > 20.6 µM | GI50 (786-0 renal) 11.8 µM | GI50 (HCC-2998 colon) > 25 µM | GI50 (HCT-15 colon) 24.6 µM | GI50 (A498 renal) 8.93 µM | GI50 (LOX IMVI melanoma) 9.26 µM | GI50 (SR leukemia) 13.1 µM | GI50 (SK-MEL-5 melanoma) 17.5 µM | GI50 (T-47D breast) 6.82 µM | GI50 (SK-MEL-2 melanoma) 6.53 µM | GI50 (BT-549 breast) > 23.6 µM | GI50 (CAKI-1 renal) 6.93 µM | GI50 (HCT-116 colon) 19.6 µM | GI50 (SF-268 CNS) 21.4 µM | GI50 (HT29 colon) 12.6 µM | GI50 (HS 578T breast) 6.53 µM | GI50 (MCF7 breast) 11.4 µM | GI50 (MDA-MB-435) 7.95 µM | GI50 (SW-620 colon) > 25 µM | GI50 (NCI-H226 lung) > 25 µM | GI50 (RPMI-8226 leukemia) > 25 µM | GI50 (COLO 205 colon) > 25 µM | GI50 (NCI-H23 lung) > 21.7 µM | GI50 (SF-295 CNS) 18.6 µM | GI50 (HOP-62 NSCLC) 19.8 µM | GI50 (UACC-257 melanoma) > 21.8 µM | GI50 (OVCAR-4 ovarian) > 25 µM | GI50 (RXF 393 renal) 5.24 µM | GI50 (MALME-3M melanoma) 11.7 µM | GI50 (U251 CNS) 24.7 µM | GI50 (OVCAR-5 ovarian) > 19.4 µM | GI50 (SF-539 CNS) 7.78 µM | GI50 (UACC-62 melanoma) 11.3 µM | GI50 (EKVX NSCLC) > 23.2 µM | GI50 (SNB-19 CNS) > 25 µM | GI50 (M14 melanoma) 15.7 µM | GI50 (UO-31 renal) 5.96 µM | GI50 (SK-OV-3 ovarian) 17.9 µM | GI50 (NCI-H522 lung) 11 µM | GI50 (DU-145 prostate) > 23.9 µM | GI50 (TK-10 renal) 9.15 µM | GI50 (CCRF-CEM leukemia) 14.8 µM
> 18.9 µM: TGI (RXF 393 renal)
> 16.6 µM: TGI (SNB-75 CNS)
17.1 µM: TGI (SK-MEL-2 melanoma)
> 20.5 µM: TGI (HS 578T breast)
> 21.8 µM: TGI (SF-539 CNS)
> 22.1 µM: TGI (HOP-92 NSCLC) | TGI (TK-10 renal)
